For data set [1], the system named is patients suffering from post-stroke depression (PSD). Description: Clinical study of maraviroc in patients suffering from post-stroke depression (PSD). The format is in vivo, human. The method, then: A clinical study to evaluate the safety, tolerability and efficacy of maraviroc in patients suffering from post-stroke depression (PSD) was performed as follows:
Ten men and women aged 50 to 86 years who experience stroke, i.e., cerebral infarction or transient ischemic attack (TIA) prior to the initiation of the study were enrolled to the study. These subjects also experienced a major depressive episode that develops within 12 months from the stroke/TIA. Clinical diagnosis of stroke was performed according to the World Health Organization Monica Project.
Exclusion criteria comprise e.g. 1) significant acute neurologic illness including: impaired consciousness, Parkinson's disease, Huntington's chorea, progressive supranuclear paralysis, brain tumor, subdural hematoma, multiple sclerosis, hydrocephalus, Binswanger's disease, or severe aphasia, 2) patients diagnosed with dementia or significant cognitive impairment as defined by a MoCA score <20 at screening, or other neurological conditions (multiple sclerosis, Parkinson's disease, epilepsy, Huntington's chorea, brain tumor, subdural hematoma, multiple sclerosis, hydrocephalus, or Binswanger's disease), 3) positive serology for Hepatitis B or C; or for HIV.
Each subject received 300 mg maraviroc daily or 150 mg daily for 10 weeks. Post-treatment follow-up was conducted for 8 weeks after the last dose of Maraviroc. During the 10 weeks of maraviroc treatment the subjects were evaluated every two weeks, and during the 8 weeks of follow-up the subjects were evaluated at the 4th and 8th week after the last dose of maraviroc.
The subjects were evaluated for the efficacy of maraviroc by assessing the improvement in depressive symptoms determined by a change from baseline (i.e., Day 1 pre-dose) in the Montgomery-Asberg Depression Rating Scale (MADRS) total score. Other assessments included, for example, assessment of depressive symptoms by the 16-item Quick Inventory of Depressive Symptomatology-Self Report (QIDS-SR16); assessment of remission, defined as a MADRS total score ≤10; assessment of response, defined as a ≥50% reduction from baseline in MADRS total score; evaluation of symptoms of anxiety as assessed by the Generalized Anxiety Disorder 7-item Scale (GAD-7)—each item is rated on a 4-point scale (0 to 3), with the total score range from 0-21 (higher scores indicating more anxiety); and evaluation of cognitive status, as assessed by cognitive score based on repeatable computerized battery of cognitive tests (Neurotrax) and Montreal Cognitive Assessment (MoCA).
Additional assessments include e.g. the clinical global impression-improvement (CGI-I), a 7 point scale that requires the clinician to assess how much the patient's illness has improved or worsened relative to a baseline state at the beginning of the intervention; the clinical global impression-severity (CGI-S), which evaluates the severity of psychopathology from 1 to 7, and provides an overall clinician-determined summary measure that takes into account all available information, including knowledge of the subject's history, psychosocial circumstances, symptoms, behavior, and the impact of the symptoms on the subject's ability to function; Patient Global Impression scales, commonly used measures of symptom severity, treatment response and the efficacy of treatments; the patient global impression-severity (PGI-S), that provides an overall patient-rated summary measure that assesses the severity of the subject's MDD; the patient global impression of change (PGI-C) which provides an overall patient-rated summary that assesses subject perception of change in their MDD since starting study treatment; the EuroQol Group; 5 dimension (EQ-5D) which is a standardized 2-part instrument for use as a measure of health outcome, primarily designed for self-completion by respondents. […]

In data set [2] the test system is simian immunodeficiency virus (SIV)-mediated CNS disease. The following applies: rhesus macaques; cited from earlier work.
The next data set has as its system hemiparkinsonian monkeys. Conditions: cited from earlier work.
Data set [3] deals with subjects with CCR5-tropic HIV-1. Conditions: cited from earlier work.

For the molecule `Cc1nnc(C(C)C)n1[C@@H]1C[C@H]2CC[C@@H](C1)N2CC[C@H](NC(=O)C1CCC(F)(F)CC1)c1ccccc1` [maraviroc], the “effect on anxiety symptoms” value in data set [1] (PSD patients, maraviroc 300 mg daily, GAD-7) is reported as “effective in reducing anxiety symptoms”. In addition, the “side effects reported by the participants during the study” value in data set [1] (PSD patients, maraviroc 300 mg once daily oral) is 1 transient impotence, 1 severe constipation (drug-unrelated). For the same molecule, the “MADRS score following 10 weeks of treatment” value in data set [1] (PSD patients, maraviroc 300 mg once daily oral, 10 weeks, initial MADRS about 35-40) is 5-10. Besides, the “MADRS score, best outcome (normal/symptom-absent, remission)” value in data set [1] (PSD patients, maraviroc 300 mg once daily oral, initial MADRS >34) is recorded as under 7. Besides, the “GAD-7 at data collection” value is 10 in data set [1] (Patient 1, 10 weeks maraviroc 300 mg daily, add-on therapy, GAD-7 at admission 17 (severe)); 6 in data set [1] (Patient 2, 10 weeks maraviroc 300 mg daily, add-on therapy, GAD-7 at admission 6 (mild)); 7 in data set [1] (Patient 3, week 7 of maraviroc 300 mg daily, add-on therapy, GAD-7 at admission 8 (mild)); 8 in data set [1] (Patient 4, week 4 of maraviroc 300 mg daily, monotherapy, GAD-7 at admission 14 (moderate)). The “CGI severity (CGI-S) after four weeks of treatment” value in data set [1] (Patient 4, maraviroc monotherapy 300 mg daily, CGI=5 (markedly ill) at admission) is listed as 3. Besides, in data set [1] (all 4 PSD patients, maraviroc 300 mg once daily oral, 4-10 weeks), the “depressive symptoms on quick inventory of depressive symptoms-self report (QIDS-SR)” value is given as “All patients improved their depressive symptoms”. Further, the “MADRS score after treatment” value in data set [1] (all 4 PSD patients, maraviroc 300 mg once daily oral, 4-10 weeks, initial MADRS about 35-40 (>34, severe)) is recorded as under 20. For the same molecule, the “time from first dose to beginning of treatment effects (time to response), depressive scores evaluated by senior psychiatrist” value in data set [1] (all 4 PSD patients, maraviroc 300 mg once daily oral, add-on (patients 1-3) or monotherapy (patient 4)) is on record as 1-2 weeks. Moreover, in data set [1] (all 4 PSD patients, self-report depressive scores, maraviroc 300 mg once daily oral), the “time from first dose to beginning of self-reported treatment effect” value is 1-2 weeks. Moreover, the safety and tolerability result in data set [1] (human PSD patients) is “well-tolerated without safety concerns”. Also, in data set [2], the “SIV-mediated CNS disease (SIV RNA in CSF and brain, CD68 immunostaining, axonal APP immunostaining)” value is “inhibited simian immunodeficiency virus (SIV)-mediated CNS disease”. In addition, the “effect on the nigrostriatum” value in the data set with hemiparkinsonian monkeys is “protects the nigrostriatum”. In addition, the “infiltration of T cells into the central nervous system” value with hemiparkinsonian monkeys was “attenuates the infiltration of T cells into the central nervous system”. In addition, the “potential treatment-emergent adverse events” value in data set [3] (pooled data from two trials in subjects with CCR5-tropic HIV-1) was “Depressive disorders and anxiety symptoms”. The “most common adverse events, at higher frequency compared with placebo” value in data set [3] (treatment-experienced subjects) is “upper respiratory tract infections, cough, pyrexia, rash, and dizziness”.

The record behind these values is patent publication US12685724B2, “Antidepressant therapy” (ICHILOV TECH LTD., priority 2020, dated 2026).
